ChEMBL document CHEMBL5247670, “TMPRSS2 Inhibitor Discovery Facilitated through an In Silico and Biochemical Screening Platform” (ACS Med Chem Lett, 2023)
Active and inactive are the calls of the source. No cut-off for these calls is given here.

Experiments:
[1] = target: Transmembrane protease serine 2 (Homo sapiens, UniProt O15393); assay: Inhibition of TMPRSS2 (106 to 492 residues) (unknown origin) using Boc-QAR-AMC as substrate measured for 20 mins by spectrophotometer analysis
[2] = tested on: SARS-CoV-2; assay: Antiviral activity against SARS-CoV-2 B.1.1.7 infected in human Calu-3 cells assessed as inhibition of viral infection preincubated for 1 hr followed by viral infection measured after 48 hrs by Hoechst 33342 staining based analysis; format: functional, organism-based; conditions: Severe acute respiratory syndrome coronavirus 2, B.1.1.7, Calu-3
[3] = tested on: Calu-3; assay: Cytotoxicity against human Calu-3 cells assessed as reduction in cell viability upto 500 uM measured after 48 hrs by Hoechst 33342 staining based analysis; format: toxicity; conditions: calu-3, 48 h
[4] = tested on: Calu-3; assay: Cytotoxicity against human Calu-3 cells assessed as reduction in cell viability; format: functional
[5] = tested on: SARS-CoV-2; assay: Antiviral activity against SARS-CoV-2 B.1.1.7 infected in human Caco-2 cells assessed as inhibition of viral infection preincubated for 1 hr followed by viral infection measured after 48 hrs by Hoechst 33342 staining based analysis; format: functional, organism-based; conditions: Severe acute respiratory syndrome coronavirus 2, time 49.0 hrs

Chain of Transmembrane protease serine 2 (O15393 1-255 limits assumed): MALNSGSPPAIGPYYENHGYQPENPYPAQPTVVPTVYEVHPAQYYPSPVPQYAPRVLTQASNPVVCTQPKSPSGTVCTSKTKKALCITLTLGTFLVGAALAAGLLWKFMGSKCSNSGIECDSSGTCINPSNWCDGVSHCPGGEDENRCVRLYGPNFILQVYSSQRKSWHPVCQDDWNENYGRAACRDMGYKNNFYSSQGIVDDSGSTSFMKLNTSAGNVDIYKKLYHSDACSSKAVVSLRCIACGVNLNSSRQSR
Chain of Transmembrane protease serine 2 (O15393 256-492 limits assumed): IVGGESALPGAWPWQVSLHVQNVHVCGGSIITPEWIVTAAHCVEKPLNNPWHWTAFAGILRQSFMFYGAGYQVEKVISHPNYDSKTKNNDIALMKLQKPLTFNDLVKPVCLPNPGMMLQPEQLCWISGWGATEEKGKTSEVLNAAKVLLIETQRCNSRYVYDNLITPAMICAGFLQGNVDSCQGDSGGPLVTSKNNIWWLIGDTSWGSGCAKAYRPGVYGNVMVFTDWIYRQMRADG

N=C(N)N1CCc2cc(NC(=O)c3cccc4ccccc34)ccc2C1
IC50 [1]: 3.4 µM

Cc1ccc(C(=O)Nc2ccc3c(c2)CCN(C(=N)N)C3)cc1
IC50 [1]: 4 µM

N=C(N)N1CCc2cc(NC(=O)c3ccc4ccccc4c3)ccc2C1
IC50 [1]: 4 µM

N=C(N)N1CCc2ccccc2C1 [DEBRISOQUIN]
IC50 [2]: 22 µM | Activity [3]: Non-Toxic | CC50 [4]: > 500 µM | Activity [5]: inactive | IC50 [1]: 23 µM

N=C(N)c1ccc(OCCCOc2ccc(C(=N)N)cc2)cc1 [PROPAMIDINE]
CC50 [4]: > 500 µM
